Test results reported in paper PMC12864594, “Photoactivated Proximity Protein Labeling Reveals Enhanced Tumor Retention of a D‐Peptide‐Ruthenium Prodrug Conjugate” (Advanced Healthcare Materials, 2025).
Where “and” joins values, the source holds several entries; their conditions need not be identical. Identical values can stand only once. Peptide text beside a SMILES is read from it.

Legend:
A549 cells [1] = assay: 2D cytotoxicity, sulforhodamine B (SRB) end point assay; format: cell-based, human; settings: A549 2D normoxic cells, 72 h, without washing, no irradiation
Procedure: Considering the potential of the six diastereomers for PACT, and their better targeting of αvβ3 in hypoxic A549 cells, compared with PC‐3, their cytotoxicity was determined in 2D monolayers of normoxic and hypoxic A549 cells using a sulforhodamine B (SRB) cell quantification end point assay^[ [66] ^] in the dark (light dose 0 J cm^−2) or upon green light activation (light dose 13.1 J cm^−2). Half‐maximal effective concentrations (EC50 in µM) were measured as an evaluation of the toxicity of the compounds. The photoindex values (PI), defined as EC50,dark/ EC50,light, were calculated to quantify the extent of light activation in cancer cells. […]
A549 cells (5000) or PC‐3 cells (6000) were seeded in 96‐well plates (Sarstedt, 83.3924), each well contained 100 µL Opti‐MEM (Gibco complete medium 11058‐021, supplemented with 2.5% v/v fetal calf serum (FCS), 0.2% v/v penicillin/streptomycin (P/S), and 1% v/v glutamine) either in normoxic (21% O2) or hypoxic (1.0% O2) incubator. […] Finally, 100 µL of cold trichloroacetic acid (10% w/v) was added to each well to fix the cells, and all plates were then transferred to a 4 °C refrigerator for 48 h before performing an SRB cell quantification endpoint assay (see below).^[ [66] ^] […] Errors were calculated utilizing 95% confidence intervals (±CI in µM). […]

A549 cells [2] = assay: Intracellular ROS generation, CellROX Deep Red probe, FACS; format: cell-based, human; settings: for Normalized intracellular ROS generation, light: light 515 nm, 13.1 J cm^−2
Procedure: To determine the pathway by which the compounds cause cell death, a ROS generation assay was performed for Δ and Λ isomers of [1]Cl2–[3]Cl2 in A549 cells using the unspecific molecular probe CellROX Deep Red. This assay was used to quantify the formation of singlet oxygen, superoxide, and […], both in the dark or upon green light irradiation (515 nm, 13.1 J cm^−2). The cells treated with medium, Tert‐butyl hydroperoxide (tBHP), cisplatin, and Rose Bengal were used as vehicle control, positive control, negative control, and green light‐activated PDT type II control, respectively. These experiments were conducted in normoxic and hypoxic cells at the same time. The mean fluorescence intensity in each cell, which was quantified by FACS and normalized to that of controls, is a relative measure of intracellular ROS production (see Table 3; raw data in Figures S30 and S31, Supporting Information). At the end of the assay, the absolute ratio R, defined as the ratio of the ROS probe emission intensity in the light group, divided by that in the dark group, was used as quantification of light‐induced ROS production.
The generation of ROS (reactive oxygen species) in A549 cells was measured using the ROS deep red fluorescence indicator (Abcam, ab186029). A549 (1 × 10^5, 1 mL) were seeded into 12‐well plates (Sarstedt, 83.3921) and incubated for 24 h in the dark under normoxia. The cells were then treated with [1]Cl2 ‐[3]Cl2, cisplatin, Rose Bengal or [Ru(Ph2phen)2Cl2] (15 µM). There were two groups for each drug (dark and light). After 24 h of incubation under normoxia, the plate was washed with cold PBS once, and cells were trypsinized, harvested, and then resuspended in 150 µL PBS. The cell suspension from the centrifuge tubes was transferred to 96‐round bottom well plates (Thermo Scientific, 268200), and the plates were kept in the dark or irradiated with […] light (dose = 13.1 J cm^−2). After which, the Cellular ROS Deep Red dye was added with 1000× dilution, and the cells were further stained for 1 h. The levels of intracellular ROS were then determined using the CytoFLEX flow cytometer using the APC‐A (638 nm excitation, 660/10 nm emission) channel. All flow cytometry data were processed using FlowLogic 8.5 software.

[3] = mixture of the Δ‐ and Λ‐ isomers; cited from earlier work
Description: Table 1 Photochemical properties of isolated Δ and Λ diastereoisomers of [1]Cl2–[3]Cl2 including molar extinction coefficients (ε, in M ^−1 cm^−1) at absorption maximum wavelength (405 nm), photosubstitution quantum yields for step 1 (ΦPS1) and step 2 (ΦPS2) in H2O or 50% MeCN in H2O under green light irradiation, and singlet oxygen quantum yields of each complexes in CD3OD. | column: Complex || To evaluate the efficiency of these ruthenium‐peptide conjugates [1]Cl2–[3]Cl2 as potential PDT type II agents, the quantum yields (ΦΔ) of singlet oxygen generation were further measured by direct spectroscopic detection of ^1O2 emission at 1275 nm in air‐saturated CD3OD (Table 1; Figure S21, Supporting Information). The ΦΔ value for a mixture of the Δ‐ and Λ‐ isomers of [1]Cl2 was already reported in our previous work (0.013 ± 0.005)^[ [51] ^]; within experimental errors, the values found for the isolated isomers were identical (0.008 ± 0.005 and 0.009 ± 0.005), and, like for the isomers of [ ...

[4] = A549, hypoxia (1%), 15 µM, 24 h
[5] = A549, hypoxia (1%), 15 µM, 24 h, dark, normalized to dark control
[6] = A549, hypoxia (1%), 15 µM, 24 h, normalized to dark control
[7] = A549, normoxia (21%), 15 µM, 24 h
[8] = A549, normoxia (21%), 15 µM, 24 h, dark, mean fluorescence normalized to dark control
[9] = A549, normoxia (21%), 15 µM, 24 h, normalized to dark control

Compound: F[P-](F)(F)(F)(F)F.F[P-](F)(F)(F)(F)F.[Ru+2].c1ccc(-c2ccnc3c2ccc2c(-c4ccccc4)ccnc23)cc1.c1ccc(-c2ccnc3c2ccc2c(-c4ccccc4)ccnc23)cc1 [[Ru(Ph2phen)2(H2O)2](PF6)2]
- EC50 (A549 cells [1]): > 100 µM

Compound: CSCC[C@@H](NC(=O)[C@@H](CC(=O)O)NC(=O)CNC(=O)[C@@H](CCCNC(=N)N)NC(=O)[C@@H](CCSC)NC(C)=O)C(N)=O
- molar extinction coefficient ε × 10^4 at 405 nm (× 10^4 M^−1 cm^−1): 1.16 and 1.27

Compound: Ac-MRGDM-NH2
- molar extinction coefficient ε × 10^4 at 405 nm (× 10^4 M^−1 cm^−1): 1.18 and 1.21

Compound: N.N.[Cl][Pt][Cl] [Cisplatin, cisplatin]
- R (ROS probe emission light group / dark group) (A549 cells [2]; [4]): 2.00
- Normalized intracellular ROS generation, dark (A549 cells [2]; [5]): 1.00
- Normalized intracellular ROS generation, light (A549 cells [2]; [6]): 1.99
- R (ROS probe emission light group / dark group) (A549 cells [2]; [7]): 1.74
- Normalized intracellular ROS generation, dark (A549 cells [2]; [8]): 1.28
- Normalized intracellular ROS generation, light (A549 cells [2]; [9]): 2.23

Compound: CC(C)(C)OO [tBHP, Tert‐butyl hydroperoxide]
- Normalized intracellular ROS generation, dark (A549 cells [2]; A549, hypoxia (1%), positive control 250 µM, 1 h): 4.36
- Normalized intracellular ROS generation, dark (A549 cells [2]; A549, normoxia (21%), positive control 250 µM, 1 h): 14.00

Compound: O=C([O-])c1c(Cl)c(Cl)c(Cl)c(Cl)c1-c1c2cc(I)c(=O)c(I)c-2oc2c(I)c([O-])c(I)cc12.[Na+].[Na+] [Rose Bengal]
- R (ROS probe emission light group / dark group) (A549 cells [2]; [4]): 3.05
- Normalized intracellular ROS generation, dark (A549 cells [2]; [5]): 0.84
- Normalized intracellular ROS generation, light (A549 cells [2]; [6]): 2.56
- R (ROS probe emission light group / dark group) (A549 cells [2]; [7]): 5.2 and 5.21
- Normalized intracellular ROS generation, dark (A549 cells [2]; [8]): 0.90
- Normalized intracellular ROS generation, light (A549 cells [2]; [9]): 4.71

Compound: CSCC[C@H](NC(=O)[C@@H](CC(=O)O)NC(=O)CNC(=O)[C@@H](CCCNC(=N)N)NC(=O)[C@H](CCSC)NC(C)=O)C(N)=O (HELM PEPTIDE1{[ac].M.[dR].G.[dD].M.[am]}$$$$V2.0)
- molar extinction coefficient ε × 10^4 at 405 nm (× 10^4 M^−1 cm^−1): 1.12 and 1.05

Compound: [Ru(Ph2phen)2(Ac‐MRGDM‐NH2)]Cl2 (sidechain bridge or staple) [[1]Cl2]
- ΦΔ (1O2) singlet oxygen quantum yield [3]: 0.013 ± 0.005
